Measured values reported in ChEMBL document CHEMBL1156582, “Synthesis and structure-activity relationships of selective norepinephrine reuptake inhibitors (sNRI) with a heterocyclic ring constraint” (Bioorg Med Chem Lett, 2008).

Columns and labels:
Type in all cases: cell-based, HEK293
[1] = molecular target: Sodium-dependent noradrenaline transporter (Homo sapiens, UniProt P23975); assay: Inhibition of norepinephrine uptake at human NET expressed in HEK cells
[2] = molecular target: Sodium-dependent serotonin transporter (Homo sapiens, UniProt P31645);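 note: test system: HEK cells expressing the human transporter, read-out is block of serotonin uptake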
[3] = molecular target: Sodium-dependent dopamine transporter (Homo sapiens, UniProt Q01959); assay: Inhibition of dopamine uptake at human DAT expressed in HEK cells
Chain of Sodium-dependent dopamine transporter (Q01959 whole entry): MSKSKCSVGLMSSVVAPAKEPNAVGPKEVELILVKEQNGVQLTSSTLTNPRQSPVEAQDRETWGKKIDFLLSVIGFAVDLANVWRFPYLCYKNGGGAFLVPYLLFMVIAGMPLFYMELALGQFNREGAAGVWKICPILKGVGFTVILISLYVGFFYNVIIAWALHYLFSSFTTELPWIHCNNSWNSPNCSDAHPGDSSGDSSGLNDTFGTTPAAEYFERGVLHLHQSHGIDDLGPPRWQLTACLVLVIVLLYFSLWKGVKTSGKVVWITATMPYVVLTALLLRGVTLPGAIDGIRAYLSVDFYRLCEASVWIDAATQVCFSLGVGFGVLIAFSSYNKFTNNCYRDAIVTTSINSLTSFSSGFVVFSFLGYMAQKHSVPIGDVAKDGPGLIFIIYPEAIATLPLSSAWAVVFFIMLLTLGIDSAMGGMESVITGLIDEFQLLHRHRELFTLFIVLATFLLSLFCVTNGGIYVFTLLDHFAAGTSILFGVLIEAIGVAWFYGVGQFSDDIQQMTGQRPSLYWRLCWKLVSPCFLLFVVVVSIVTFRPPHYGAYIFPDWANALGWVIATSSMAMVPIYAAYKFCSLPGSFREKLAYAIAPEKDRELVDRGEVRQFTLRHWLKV

Chain of Sodium-dependent noradrenaline transporter (P23975 whole entry): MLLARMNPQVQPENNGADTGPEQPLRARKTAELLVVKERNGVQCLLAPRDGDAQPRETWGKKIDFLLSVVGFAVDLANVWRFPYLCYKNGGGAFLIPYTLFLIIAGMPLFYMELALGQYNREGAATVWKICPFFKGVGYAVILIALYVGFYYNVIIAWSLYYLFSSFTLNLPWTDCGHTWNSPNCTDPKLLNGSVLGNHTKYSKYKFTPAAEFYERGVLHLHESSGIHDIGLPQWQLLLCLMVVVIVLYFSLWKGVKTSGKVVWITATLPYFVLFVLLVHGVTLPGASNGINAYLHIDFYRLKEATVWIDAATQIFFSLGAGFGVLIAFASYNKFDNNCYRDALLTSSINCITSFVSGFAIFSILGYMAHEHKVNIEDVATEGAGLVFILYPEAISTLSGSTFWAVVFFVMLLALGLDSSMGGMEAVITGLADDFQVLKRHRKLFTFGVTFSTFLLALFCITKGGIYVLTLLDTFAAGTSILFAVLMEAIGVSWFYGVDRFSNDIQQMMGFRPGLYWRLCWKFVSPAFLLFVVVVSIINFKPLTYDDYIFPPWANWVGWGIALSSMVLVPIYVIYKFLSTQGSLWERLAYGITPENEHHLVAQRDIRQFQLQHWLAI
Chain of Sodium-dependent serotonin transporter (P31645 whole entry): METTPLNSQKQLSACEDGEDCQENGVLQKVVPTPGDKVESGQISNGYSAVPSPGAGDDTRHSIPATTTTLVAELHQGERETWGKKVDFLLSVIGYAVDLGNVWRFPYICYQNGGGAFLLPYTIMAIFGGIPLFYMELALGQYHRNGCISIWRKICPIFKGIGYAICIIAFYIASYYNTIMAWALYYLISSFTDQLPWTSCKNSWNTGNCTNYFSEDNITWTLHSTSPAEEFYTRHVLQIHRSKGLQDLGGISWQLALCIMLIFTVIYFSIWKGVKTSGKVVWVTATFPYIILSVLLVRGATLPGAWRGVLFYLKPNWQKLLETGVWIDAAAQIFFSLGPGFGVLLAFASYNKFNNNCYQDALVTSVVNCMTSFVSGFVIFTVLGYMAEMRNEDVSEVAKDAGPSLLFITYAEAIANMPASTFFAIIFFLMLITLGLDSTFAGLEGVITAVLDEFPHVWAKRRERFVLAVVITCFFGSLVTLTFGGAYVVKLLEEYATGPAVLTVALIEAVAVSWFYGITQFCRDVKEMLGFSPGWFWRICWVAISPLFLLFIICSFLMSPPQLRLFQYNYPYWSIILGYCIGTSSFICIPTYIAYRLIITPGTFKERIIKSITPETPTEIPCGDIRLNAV

Structure (SMILES)	IC50 [1]	IC50 [2]	IC50 [3]
CNC[C@@H]1OCc2ccccc2[C@@H]1Oc1ccccc1SC	14 nM	6000 nM	> 10 µM
CNC[C@H]1OCc2ccccc2[C@@H]1Oc1ccccc1OC	480 nM	> 10000 nM	> 10 µM
CNC[C@H]1OCc2ccccc2[C@@H]1Oc1ccccc1SC	45 nM	640 nM	4 µM
CNC[C@H]1CS(=O)(=O)c2ccccc2[C@@H]1Oc1ccccc1C	8000 nM	10000 nM	> 10 µM
CNC[C@@H]1OCc2ccccc2[C@@H]1Oc1ccccc1F	75 nM	3100 nM	> 10 µM
CN(C)C[C@@H]1Cc2ccccc2[C@@H]1Oc1ccc(C(F)(F)F)cc1	4500 nM	230 nM	> 10 µM
CCc1ccccc1O[C@H]1c2ccccc2CO[C@@H]1CNC	36 nM	3000 nM	> 10 µM
Cc1ccccc1O[C@H]1c2ccccc2OC[C@H]1CN(C)C	700 nM	1100 nM	> 10 µM
CCOc1ccccc1O[C@H]1c2ccccc2CO[C@@H]1CNC	240 nM	> 10000 nM	> 10 µM
CNC[C@H]1Cc2ccccc2[C@@H]1Oc1cccc2ccccc12	400 nM	90 nM	4 µM
CCc1ccccc1O[C@H]1c2ccccc2CO[C@H]1CNC	15 nM	4500 nM	> 10 µM
CNC[C@@H]1Cc2ccccc2[C@@H]1Oc1ccccc1C	10 nM	1600 nM	5.3 µM
CCc1cccc(F)c1O[C@H]1c2ccccc2CO[C@H]1CNC	8 nM	1400 nM	> 10 µM
CNC[C@@H]1OCc2ccccc2[C@@H]1Oc1ccc(F)cc1C	13 nM	150 nM	> 10 µM
CNC[C@@H]1SCc2ccccc2[C@@H]1Oc1ccccc1Cl	140 nM	2700 nM	> 10 µM
CNC[C@@H]1OCc2ccccc2[C@@H]1Oc1cccc(Cl)c1C	9 nM	100 nM	1.4 µM
CNC[C@@H]1CSc2ccccc2[C@@H]1Oc1ccccc1Cl	145 nM	3600 nM	> 10 µM
CNC[C@@H]1Cc2ccccc2[C@@H]1Oc1ccc(C(F)(F)F)cc1	880 nM	190 nM	> 10 µM
CNC[C@@H]1OCc2ccccc2[C@@H]1Oc1cc(F)ccc1C	11 nM	4000 nM	> 10 µM
CNC[C@@H]1Cc2ccccc2[C@@H]1Oc1cccc2ccccc12	30 nM	140 nM	5.7 µM
CNC[C@H]1Cc2ccccc2[C@@H]1Oc1ccccc1C	35 nM	1500 nM	> 10 µM
CNC[C@H]1CSc2ccccc2[C@@H]1Oc1ccccc1C	430 nM	3100 nM	7.5 µM
Cc1ccccc1O[C@H]1c2ccccc2C[C@H]1CN(C)C	5000 nM	6500 nM	> 10 µM
